Assay results: US8476043B2, “Inhibitors for the soluble epoxide hydrolase” (The Regents of the University of California, priority 2004, dated 2013)
Converted amounts (≈) assume the structure as drawn.

How the values were obtained:
human sEH [1] = target: T1, human sEH (Homo sapiens, UniProt P34913); assay: sEH inhibition, spectrometric assay with racemic 4-nitrophenyl-trans-2,3-epoxy-3-phenylpropyl carbonate as substrate; assay type: biochemical; details: Table 5; spectrometric-based assay; read-out: Human sEH IC50
T1 construct: made in house
T1 sequence (P34913 1-555): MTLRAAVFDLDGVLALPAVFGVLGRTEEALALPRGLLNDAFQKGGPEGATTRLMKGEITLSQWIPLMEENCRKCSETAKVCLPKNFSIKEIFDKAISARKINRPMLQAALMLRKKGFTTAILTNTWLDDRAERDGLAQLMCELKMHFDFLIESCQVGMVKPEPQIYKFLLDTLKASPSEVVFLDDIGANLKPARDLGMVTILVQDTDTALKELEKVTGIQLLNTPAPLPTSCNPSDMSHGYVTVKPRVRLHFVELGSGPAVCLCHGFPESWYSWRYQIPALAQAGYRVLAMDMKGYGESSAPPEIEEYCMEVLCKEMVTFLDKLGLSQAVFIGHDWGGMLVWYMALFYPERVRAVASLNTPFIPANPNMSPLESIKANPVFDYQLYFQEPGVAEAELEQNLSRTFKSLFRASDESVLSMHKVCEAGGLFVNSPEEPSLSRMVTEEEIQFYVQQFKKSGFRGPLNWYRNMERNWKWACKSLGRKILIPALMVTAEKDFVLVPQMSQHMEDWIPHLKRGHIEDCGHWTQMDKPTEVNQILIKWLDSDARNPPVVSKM
Experimental: (§1) Recombinant mouse sEH and human sEH were produced in a baculovirus expression system and purified by affinity chromatography. […] Protein concentration was quantified by using the Pierce BCA assay using Fraction V bovine serum albumin as the calibrating standard.
(§2) IC50 values were determined in one of two method. One method uses racemic 4-nitrophenyl-trans-2,3-epoxy-3-phenylpropyl carbonate as substrate. […] Assays were performed in triplicate. […] The curve was generated from at least three separate runs, each in triplicate, to obtain the standard deviation (SD) given in Table 1 thru Table 4.

mouse sEH = target: T2, mouse sEH (Mus musculus, UniProt P34914); assay: as above; assay type: biochemical; details: Table 5; spectrometric-based assay; read-out: Mouse sEH IC50
T2 construct: made in house
T2 sequence (P34914 1-554): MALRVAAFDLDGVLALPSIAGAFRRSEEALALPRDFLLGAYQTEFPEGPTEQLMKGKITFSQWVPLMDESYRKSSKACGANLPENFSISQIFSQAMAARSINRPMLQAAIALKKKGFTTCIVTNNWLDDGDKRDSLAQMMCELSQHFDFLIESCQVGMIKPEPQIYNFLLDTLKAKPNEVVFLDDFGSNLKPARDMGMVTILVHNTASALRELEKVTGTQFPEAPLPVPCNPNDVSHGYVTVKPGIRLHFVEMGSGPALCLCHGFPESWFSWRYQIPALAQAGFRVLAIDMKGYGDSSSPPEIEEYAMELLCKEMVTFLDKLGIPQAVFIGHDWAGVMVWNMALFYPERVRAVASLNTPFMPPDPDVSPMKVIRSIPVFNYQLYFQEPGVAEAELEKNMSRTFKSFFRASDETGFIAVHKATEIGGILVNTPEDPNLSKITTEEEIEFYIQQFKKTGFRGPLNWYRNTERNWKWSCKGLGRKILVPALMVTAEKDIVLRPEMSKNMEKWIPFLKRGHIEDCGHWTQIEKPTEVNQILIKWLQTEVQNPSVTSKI
Experimental: as §1, §2

human sEH [2] = target: T1, human sEH; assay: sEH inhibition, fluorescent assay with cyano(6-methoxy-naphthalen-2-yl)methyl trans-[(3-phenyloxiran-2-yl)methyl]carbonate as substrate; assay type: biochemical
How it was run: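 Affinity-purified recombinant human sEH from baculovirus expression; activity followed as formation of fluorescent 6-methoxy-2-naphthaldehyde from the carbonate substrate. IC50 by regression of at least five points, two on each side of the IC50 in the linear region, from at least three separate runs, each in triplicate.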

Solubility in water = assay type: physicochemical
Solubility in oil = assay type: physicochemical; details: Table 5
[3] = In vitro metabolism in liver microsomes and S9 fractions; assay type: in vitro ADME; details: rat and human microsomes, with NADPH
Excerpt: Both rat and human microsomes were used for the 950 metabolism study.

Row | IC50 (human sEH [1]) | IC50 (mouse sEH) | IC50 (human sEH [2]; Table 5, fluorescent-based assay, 0.96 nM human sEH, pH 7.0, [S] = 5 μM, read-out: Human sEH IC50) | fold improvement in inhibition of the human enzyme (human sEH [2]; compared with 687 (compound 4)) | fold lower water solubility than compound 4 (687) (Solubility in water) | solubility (Solubility in water; water, Table 5) | Solubility in oil (Solubility in oil) | SMILES | major metabolite in vitro [3]
1 | 100 ± 10 nM | 50 ± 10 nM | 2.1 nM | about 1.5 fold | 3 fold | 10 µg/mL (≈ 21.3 µM) | 4,000 μg/mL | CS(=O)(=O)NC(=O)CCCCCCCCCCCNC(=O)NC12CC3CC(CC(C3)C1)C2 [Compound 848, N-[12-(3-Adamantan-1-yl-ureido)dodecanoyl]methanesulfonamide] | –
2 | – | – | – | – | – | – | – | CCOCCOCCOCCCCCNC(=O)NC12CC3CC(CC(C3)C1)C2 [Compound 950] | hydroxy metabolite was the major metabolite
